Assay results from patent US20210386752A1, “Uses of Electron Transport Chain Complex I or Complex II Inhibitors in Treating Cancer, Combination Therapies, and Diagnostic Methods Related Thereto” (Emory University, priority 2020, published 2021).
Read-outs that look alike come from different tables or passages of the source.

How the values were obtained:
MM cell lines = test: Cell death of MM cell lines with single-agent venetoclax, AnnexinV/DAPI flow cytometric staining; assay type: cell-based; conditions: 0.5 μM venetoclax, 24 h, panel of MM lines
Description: Percent live normalized to vehicle control, with cell lines grouped by sensitivity. n=3 independent experiments.
Differential venetoclax sensitivity was assessed in a panel of MM lines. […] The pattern of increased sensitivity of these cell lines was selective for venetoclax and not detected with other standard myeloma therapeutics i.e. bortezomib and melphalan or sensitivity to the MCL-1 inhibitor […] as reported for the KMS12BM, KMS12PE, KMS11, MM.1 S, JJN3, RPMI-8226 and L363 lines.

MM patients = conditions: cited from earlier work
AML = conditions: targeting Complex II; cited from earlier work
L363, KMS11 and KMS21BM = test: ATP levels after ETC complex III, IV, V inhibition; assay type: cell-based; conditions: after 24 h, at the doses used
Description: Experiments were performed to determine whether inhibition of Complex III, IV and V could also sensitize resistant MINI to venetoclax.

[1] = system: bone marrow plasma cells and memory B cells; conditions: murine immune system; cited from earlier work
[2] = system: venetoclax-resistant MM lines; test: Venetoclax sensitization of resistant MM lines by ETC inhibitor cotreatment, viability by AnnexinV/DAPI staining; assay type: cell-based
Description: Cell viability assessed by AnnexinV/DAPI staining.
Given the unique role of Complex II in directly connecting the TCA cycle to the ETC, the impact of selectively inhibiting either the SDH or SQR activities of Complex II on venetoclax sensitivity was tested. The venetoclax sensitization effects of TTFA (SQR inhibitor) or 3NPA (SDH inhibitor) were tested on eight venetoclax-resistant MM lines (FIG. 3A-3H). 3NPA is a structural analog of succinate, which binds irreversibly with SDH inhibiting FAD reduction and fumarate production while TTFA is a direct Qp site inhibitor. […] The efficacy of the TTFA-venetoclax cotreatment strategy was also tested in a colony-forming unit assay. MM lines (L363 and KMS11) were cultured in an agar matrix with single agents or the combination.
To further inquire whether Complex I inhibition could also sensitize MM cells to venetoclax, a Complex I inhibitor was tested ([…]).

[3] = system: non-MM cells contained within the aspirate
Description: Bone marrow aspirate samples from 50 MM patients were treated with three doses of venetoclax (0.01, 0.1 and 0.5 μM) or TTFA (100 μM), or the combination for 24 h and cell death was assessed by AnnexinV staining.
The efficacy of IACS-010759 in sensitizing was tested in […] patient samples to venetoclax.

MCL-1 = MCL-1 expression in MM cells; assay type: cell-based; conditions: KMS12PE
[4] = system: CD38+ CD45− gated MM cells from myeloma patient bone marrow aspirates; test: Ex vivo venetoclax sensitivity of myeloma patient samples, Annexin V staining; assay type: cell-based, human; conditions: nine patient samples, IACS-010759
Description: CD38-PE and CD45-APC-Cy7 were used to gate myeloma cells. n=50 biological independent samples.
Bone marrow aspirate samples from 50 MM patients were treated with three doses of venetoclax (0.01, 0.1 and 0.5 μM) or TTFA (100 μM), or the combination for 24 h and cell death was assessed by AnnexinV staining. […] A venetoclax ICso <0.1 μM is characterized as a sensitive sample.
Bone marrow aspirates or peripheral blood samples from consenting myeloma patients were diluted to 25 mL with PBS and over laid on lymphocyte separation media. Following centrifugation, the collected buffy coat was washed with PBS and resuspended in culture medium. Cells subject to various treatments were stained with anti-CD38-phyocerythrin and anti-CD45-allophycocyanin-Cy7 to identify MM cells. CD138+ cells were purified using MACS CD138+ human microbeads. IC50S of venetoclax alone or in combination with TTFA/IACS-010759 in myeloma samples were calculated using nonlinear regression (curve-fit) analysis under agonist vs. normalized response with variable slope.

MM = test: IACS-010759 in combination with anti-myeloma agents, cell death in MM cells; assay type: cell-based
ATF4, NOXA = test: Immunoblot of whole cell lysates for ATF4 and NOXA; assay type: cell-based; conditions: 25 nM IACS-010759, 24 h
[5] = L363, KMS11, KMS21BM, doses reducing ATP by about 50% after 24 h

## CC1(C)CCC(CN2CCN(c3ccc(C(=O)NS(=O)(=O)c4ccc(NCC5CCOCC5)c([N+](=O)[O-])c4)c(Oc4cnc5[nH]ccc5c4)c3)CC2)=C(c2ccc(Cl)cc2)C1 [venetoclax, 2-((1H-pyrrolo[2,3-b]pyridin-5-yl)oxy)-4-(4-((4′-chloro-5,5-dimethyl-3,4,5,6-tetrahydro-[1,1′-biphenyl]-2-yl)methyl)piperazin-1-yl)-N-((3-nitro-4-(((tetrahydro-2H-pyran-4-yl)methyl)amino)phenyl)sulfonyl)benzamide]
MM cell lines
  cytotoxicity (cell death): significant cytotoxicity primarily in t(11;14) lines
MM patients; all MM patients
  fraction of MM patients responding to single agent: approximately 7%
MM patients; non-t(11;14) patients
  fraction of patients venetoclax sensitive: < 6%
MM patients; t(11;14) patients
  fraction of patients venetoclax sensitive: ~40%

## Nc1ncn([C@@H]2O[C@H](CO)[C@@H](O)[C@H]2O)c(=O)n1 [azacitidine]
AML
  venetoclax sensitivity: induced venetoclax sensitivity

## [N-]=[N+]=[N-] [sodium azide]
L363, KMS11 and KMS21BM
  reduction of ATP levels: about 50%

## CN(C)CC[C@H](CSc1ccccc1)Nc1ccc(S(=O)(=O)NC(=O)c2ccc(N3CCN(Cc4ccccc4-c4ccc(Cl)cc4)CC3)cc2)cc1[N+](=O)[O-] [ABT-737]
[1]
  effect on plasma cells and B cells: inhibits the establishment of newly arising bone marrow plasma cells and memory B cells with no effect on pre-existing plasma cells, or germinal center B cells

## C/C=C(\C)[C@H](O)[C@H](C)/C=C(C)/C=C/C/C(C)=C/Cc1nc(OC)c(OC)c(O)c1C [piericidin]
[2]; resistant MM cell lines, Complex I inhibitor
  sensitization to venetoclax: also sensitized resistant MM cell lines to venetoclax

## Cc1nc(-c2nc(-c3ccc(OC(F)(F)F)cc3)no2)nn1Cc1cccc(N2CCC(S(C)(=O)=O)CC2)c1 [IACS-010759, 5-(5-methyl-1-(3-(4-(methylsulfonyl)piperidin-1-yl)benzyl)-1H-1,2,4-triazol-3-yl)-3-(4-(trifluoromethoxy)phenyl)-1,2,4-oxadiazole]
[3]
  viability of non-MM cells: minimal impact on the viability of non-MM cells
MCL-1
  MCL-1 expression: reduces MCL-1
[4]
  samples with >50% reduction in the IC50 of venetoclax: five of the samples
  samples with increased venetoclax sensitivity: Eight out of nine samples showed increased sensitivity
MM; 24 hr dose response
  effect on carfilzomib (CFZ) response: antagonizes MM to proteasome inhibitor carfilzomib
MM; L363, 24 hr treatment
  effect on bortezomib induced cell death: antagonizes MM to proteasome inhibitor bortezomib induced cell death
  effect on melphalan induced cell death: sensitizes myeloma to melphalan induced cell death
MM; MM
  effect on efficacy of dexamethasone + venetoclax: increases efficacy of dexamethasone (Dex) +Ven
  effect on sensitivity to dexamethasone: increases sensitivity of MM to Dex
MM; t(11;14) MM, KMS12PE, 24 hr Ven treatment
  sensitization to venetoclax (ABT-199): sensitizes t(11;14) MM to venetoclax
[2]; 25 nM IACS-010759, tested cell lines
  IC50 of venetoclax on cotreatment: significantly reduced the IC50 of venetoclax
[2]; KMS11, L363, KMS21BM, increasing doses of IACS-010759, 24 h
  sensitization to 0.5 μM venetoclax: sensitized cells to 0.5 μM venetoclax
[2]; KMS21BM, TTFA at 100 μM
  sensitization to venetoclax: enough to sensitize KMS21BM to venetoclax
ATF4, NOXA
  protein expression of ATF4, NOXA: induction of ATF4 and NOXA

## CC[C@H]1/C=C/C=C/C[C@@H](C)[C@H](O)[C@@](C)(O)C(=O)[C@@H](C)[C@H](O)[C@@H](C)C(=O)[C@@H](C)[C@H](O)[C@@H](C)/C=C/C(=O)O[C@@H]2[C@H](C)[C@H](CC1)O[C@]1(CC[C@H](C)[C@H](C[C@@H](C)O)O1)[C@H]2C [oligomycin]
L363, KMS11 and KMS21BM
  reduction of ATP levels: about 50%
[2]; [5]
  sensitization to venetoclax: sensitized L363, KMS11 and KMS21BM to venetoclax

## O=C(O)CC[N+](=O)[O-] [3NPA]
[2]; eight venetoclax-resistant MM lines, 24 h
  sensitivity to venetoclax on cotreatment: less effective compared to TTFA

## antimycin
L363, KMS11 and KMS21BM
  reduction of ATP levels: about 50%
[2]; [5]
  sensitization to venetoclax: sensitized L363, KMS11 and KMS21BM to venetoclax
